Consider nine compounds from patent US20250129069A1, “TRIAZOLO WRN INHIBITORS” (Nimbus Wadjet, Inc., priority 2023, published 2025).

A value given as a limit tells only on which side of the number the result lay.

The test system of the first test is p21 induction in HCT 116 cells. Briefly: p21 induction in cells (In-Cell Western, p21/GAPDH ratio). The conditions noted are these: 24 h compound incubation, read-out: p21_EC50. Type of test: cell-based. The method, then: The colon carcinoma cell line HCT 116 was obtained from ATCC and cultured in growth medium consisting of Mccoy's 5A Medium (Gibco 16600108) supplemented with 10% FBS (Transgene FS201-02) and 100 units/mL penicillin-streptomycin (Gibco 15140122) and maintained at 37° C. under 5% CO2. On the day of seeding, 2,000 cells in 30 μL of culture media were plated per well to Poly-D-Lysine 384 Well Black Clear Plates (Biocoat 356663) and incubated overnight at 37° C. under 5% CO2. The following day, compounds were serially diluted in DMSO for a total of 11 test concentrations. The typical starting concentration of compounds was 10 μM with 2-fold dilutions. Next, 150 nL of diluted compound was added in duplicate to the assay plate, using an Echo 655 (Labcyte). The plate was centrifuged at 500 RPM for 1 min and then incubated at 37° C. under 5% CO2 for 24 h. After 24 h, medium was removed, and cells were fixed by adding 40 μL of 4% paraformaldehyde solution to each well and incubated for 20 min at room temperature. The plate was then washed 4 times with 100 μL per well of wash buffer (PBS with 0.1% Tween-20) using a microplate washer. Next, 30 μL of ice-cold methanol was added to each well and the plate was incubated at −20° C. for 10 min. The plate was washed 4 times with 100 μL per well of wash buffer by a microplate washer, then 30 μL per well of blocking buffer ((Intercept PBS blocking buffer (LI-COR 927-70001) with 0.05% Tween-20)) was added and the plate was incubated at room temperature with shaking for 2 h. Next, to each test well, 20 μL of primary antibody solution (p21 Wafl/CIP (12D1) RabbitmAb (Cell Signaling Technologies 2947) diluted 1:1000 and GAPDH (D4C6R) Mouse mAb (Cell Signaling Technologies 97166) diluted 1:2000 in blocking buffer) was added and the plate was placed at 4° C., overnight. The following day, the plate was washed 5 times with 100 μL per well of wash buffer using a microplate washer for 5 min. 20 μL per well of secondary antibody (IRDye 680CW Goat anti-Mouse IgG (H+L) (LI-COR 926-68070) diluted 1:2000 in Blocking Buffer and IRDye 800CW Goat anti-Rabbit IgG (H+L) (LI-COR 926-32211) diluted 1:2000 in Blocking Buffer) was then added and the plate was stored for 2 h in the dark at room temperature with shaking. The plate was then washed 4 times with 100 μL per well of wash buffer again using a microplate washer. Finally, the p21 signal and the GAPDH signal were quantified using a LI-COR Odyssey CLx Imager machine reading at 800 nm and 700 nm, respectively. Each plate contained DMSO control (low control) and an internal reference WRN inhibitor (high control) respectively. For quantitation, the 800 nm/700 nm ratio was calculated for each well to give fold p21 induction and then percent activation for each compound well was calculated as follows (100×(ratio cpd well-ratio low control)/(ratio high control−ratio low control). EC50 values for each compound was generated after non-linear regression curve fitting using commercially available software.
As to `CCc1c(N2CCN(C(=O)c3ncnc(C)c3O)[C@H]3CC[C@@H]32)c(=O)c2nn([C@@H]3CC3(F)F)nc2n1CC(=O)Nc1ccc(C(F)(F)F)cc1Cl` (single isomer, unassigned) [Compound I-216], the EC50 was at most 500 nM.

The test is the same for the next values; noted with them: Homo sapiens, 24 h compound incubation, read-out: p21_EC50.
On to `CCc1c(N2CCN(C(=O)c3ncnc(C)c3O)[C@H]3CC[C@@H]32)c(=O)c2nn(C3=CCOC(C)C3)nc2n1CC(=O)NC12CC(C3CC3)(C1)C2` (stereo partly drawn) [Compound I-172, N-{3-cyclopropylbicyclo[1.1.1]pentan-1-yl}-2-{5-ethyl-6-[(1S,6S)-5-(5-hydroxy-6-methylpyrimidine-4-carbonyl)-2,5-diazabicyclo[4.2.0]octan-2-yl]-2-(2-methyl-3,6-dihydro-2H-pyran-4-yl)-7-oxo-2H,4H,7H-[1,2,3]triazolo[4,5-b]pyridin-4-yl}acetamide], for which the EC50 was at most 500 nM.
With `CCc1c(N2CCN(C(=O)c3ncnc(C)c3O)[C@H]3CC[C@@H]32)c(=O)c2nn(-c3ccnc(OC)c3)nc2n1CC(=O)Nc1ccc(C(F)(F)F)cc1Cl` [Compound I-55, N-[2-chloro-4-(trifluoromethyl)phenyl]-2-{5-ethyl-6-[(1S,6S)-5-(5-hydroxy-6-methylpyrimidine-4-carbonyl)-2,5-diazabicyclo[4.2.0]octan-2-yl]-2-(2-methoxypyridin-4-yl)-7-oxo-2H,4H,7H-[1,2,3]triazolo[4,5-b]pyridin-4-yl}acetamide], the EC50 is at most 500 nM.
For `CCc1c(N2CCN(C(=O)c3c(OC)ccc4ncoc34)[C@H]3CC[C@@H]32)c(=O)c2nn(C3=CCOCC3)nc2n1CC(=O)NC12CC(C3CC3)(C1)C2` [Compound I-192, N-{3-cyclopropylbicyclo[1.1.1]pentan-1-yl}-2-[2-(3,6-dihydro-2H-pyran-4-yl)-5-ethyl-6-[(1S,6S)-5-(6-methoxy-1,3-benzoxazole-7-carbonyl)-2,5-diazabicyclo[4.2.0]octan-2-yl]-7-oxo-2H,4H,7H-[1,2,3]triazolo[4,5-b]pyridin-4-yl]acetamide], the EC50 is at most 500 nM.
As for `CCc1c(N2CCN(C(=O)c3ncnc(C)c3O)[C@H]3CC[C@@H]32)c(=O)c2nn(C3=CCC(OC)CC3)nc2n1CC(=O)NC12CC(C3CC3)(C1)C2` (stereo partly drawn) [Compound I-173, N-{3-cyclopropylbicyclo[1.1.1]pentan-1-yl}-2-{5-ethyl-6-[(1S,6S)-5-(5-hydroxy-6-methylpyrimidine-4-carbonyl)-2,5-diazabicyclo[4.2.0]octan-2-yl]-2-(4-methoxycyclohex-1-en-1-yl)-7-oxo-2H,4H,7H-[1,2,3]triazolo[4,5-b]pyridin-4-yl}acetamide], the EC50 is at most 500 nM.
Turning to `CCc1c(N2CCN(C(=O)c3ncnc(C)c3O)[C@H]3CC[C@@H]32)c(=O)c2nn(C3=CCN(CC(F)F)CC3)nc2n1CC(=O)NC12CC(C3CC3)(C1)C2` [Compound I-185, N-{3-cyclopropylbicyclo[1.1.1]pentan-1-yl}-2-{2-[1-(2,2-difluoroethyl)-1,2,3,6-tetrahydropyridin-4-yl]-5-ethyl-6-[(1S,6S)-5-(5-hydroxy-6-methylpyrimidine-4-carbonyl)-2,5-diazabicyclo[4.2.0]octan-2-yl]-7-oxo-2H,4H,7H-[1,2,3]triazolo[4,5-b]pyridin-4-yl}acetamide], the EC50 was at most 500 nM.

The next test deals with human Werner helicase (WRN, amino acids 517-1235 with L1074F point mutation) (Homo sapiens (Human), UniProt Q14191, L1074F). Briefly: WRN (BV08) ADP-Glo assay. Type of test: biochemical. The conditions noted are these: human WRN (aa 517-1235, L1074F), read-out: ADP-Glo_hWRN_IC50. The source says: Bovine skin gelatin (BSG), dimethyl sulfoxide (DMSO), Pluronic F-127 and tris(2-carboxyethyl)phosphine hydrochloride solution (TCEP) were purchased from Sigma-Aldrich (St. Louis, MO) at the highest level of purity possible. Bicine buffer solution was purchased from Alfa Aesar (Tewksbury, MA) and compound NSC-617145 was purchased from Tocris (Minneapolis, MN). DNA duplex was synthesized at BGI (Shenzhen, China) and was composed of strand 1 with the sequence 5′-[…]-3′ (SEQ ID NO.: 1) and strand 2 with the sequence 5′-[…]-3′ (SEQ ID NO.: 2). DNA strands were annealed by heating to 95° C. for 5 minutes followed by slow cooling to room temperature. Compounds in 100% DMSO (0.1 μl) were spotted into a 384-well white polystyrene Optiplate-384 (Perkin Elmer; Waltham, MA) assay plate using a LabCyte Echo 550 (Agilent; Santa Clara, CA). DMSO (0.1 μl) was added to columns 12, rows A-H and column 24, rows I-P for the maximum signal control. Compound NSC-617145 (0.1 μl) was added to columns 12, rows I-P and 24, rows A-H for the minimum signal control (100% inhibition). Compounds/DMSO were preincubated for 15 minutes at 25° C. with 5 μl 2×WRN (BV08), prepared as described below, in assay buffer containing 20 mM Bicine (pH=7.5), 1 mM MgCl2, 10 mM KCl, 0.1% Pluronic F-127, 0.005% BSG, 1 mM TCEP. The reaction was initiated by the addition of 5 μl 2× substrate mixture in assay buffer and incubated for 60 minutes at 25° C. The final concentrations of the assay components were 0.15 nM WRN, 5 μM ATP, and 0.1 nM DNA duplex. The final DMSO concentration was 1% and the reference compound concentration (NSC-617145) used for the minimal signal control was 20 μM. The reaction was stopped by the addition of the ADP-Glo Kit components (Promega; Madison, WI) as directed and the relative luminescence units (RLU) were read on an Envision 2104 (Perkin Elmer; Waltham, MA).
Chain of human Werner helicase (WRN, amino acids 517-1235 with L1074F point mutation) (Q14191 other isoform, or with tags, fused parts or gaps L1074F (already in the parent)): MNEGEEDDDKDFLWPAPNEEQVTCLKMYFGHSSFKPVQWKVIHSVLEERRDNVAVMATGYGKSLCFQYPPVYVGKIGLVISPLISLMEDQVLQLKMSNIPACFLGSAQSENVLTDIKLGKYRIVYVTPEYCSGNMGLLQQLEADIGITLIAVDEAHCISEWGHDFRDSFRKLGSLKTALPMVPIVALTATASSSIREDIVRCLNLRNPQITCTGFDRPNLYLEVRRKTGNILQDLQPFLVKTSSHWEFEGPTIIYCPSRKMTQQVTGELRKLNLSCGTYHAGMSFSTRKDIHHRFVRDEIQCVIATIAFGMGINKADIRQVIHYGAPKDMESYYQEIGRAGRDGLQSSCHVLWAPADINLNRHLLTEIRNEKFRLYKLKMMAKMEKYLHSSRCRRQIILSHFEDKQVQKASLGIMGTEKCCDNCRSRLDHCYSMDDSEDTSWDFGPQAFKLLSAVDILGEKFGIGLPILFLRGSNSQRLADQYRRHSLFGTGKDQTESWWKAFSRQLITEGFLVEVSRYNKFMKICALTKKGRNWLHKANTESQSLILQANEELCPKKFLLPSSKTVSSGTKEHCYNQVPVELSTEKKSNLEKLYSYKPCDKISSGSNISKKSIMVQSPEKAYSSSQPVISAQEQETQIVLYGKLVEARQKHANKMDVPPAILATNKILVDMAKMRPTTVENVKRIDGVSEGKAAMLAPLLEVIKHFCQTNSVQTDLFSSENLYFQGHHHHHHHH
% inhibition calculation:
% INH=(RLU MAX−RLU sample)/(RLU MAX−RLU MIN))×100
Where RLU=relative luminescence units, sample=signal in sample well, and MIN and MAX are the respective minimum and maximum signal controls. Four-parameter IC50 fit equation:
Y=Bottom+(Top−Bottom)/(1+(IC50/X)^Hill Slope)
Where top and bottom are normally allowed to float but may be fixed at 100 or 0 respectively in a 3-parameter fit. Y is the % inhibition and X is the compound concentration.
Molecular Biology and virus production. The DNA encoding human Werner helicase (Uniprot Q14191, amino acids 517-1235 with L1074F point mutation) was generated with codon-optimization for E. coli expression and subcloned into the pFastBac vector with a TEV cleavable 8×His tag (WRN—BV08). The baculovirus from the expression plasmid WRN—BV08 was generated from transfection and amplification following the manufacturer's instructions.
Sf9 cells grown in SF900II media were infected with 1:200 WRN—BV08 P2 virus and incubated for protein expression for 72 h at 27° C. The WRN protein was purified using the following protocol. The cell pellets were thawed and resuspended in buffer A (50 mM Tris, pH 7.5, 500 mM NaCl, 1 mM TCEP, 10% Glycerol) supplemented with 0.5% CHAPS, 1 mM PMSF, […] Leupeptin, 1 μg/ml Pepstatin, and the Pierce Universal Nuclease and cocktail tablet. Cleared lysates were loaded onto a Ni Sepharose™ excel column and washed with buffer A and bound protein was eluted with buffer A supplemented with 300 mM imidazole. The eluted protein was dialyzed against buffer A and digested by His-tagged TEV (1:5 ratio) overnight at 4° C. ZnCl2 was added into the sample at final 15 μM before loading onto a second Ni Sepharose™ excel column. Untagged WRN protein was eluted from the column with buffer A supplemented with 20 mM imidazole, dialyzed overnight into buffer B (50 mM Tris, pH 7.5, 1 mM TCEP, 10% Glycerol) supplemented with 150 mM NaCl and loaded onto a Heparin column. Proteins were eluted with a step gradient of buffer B supplemented with 150 mM, 200 mM, 300 mM and 500 mM NaCl. […]
Background: ADP-Glo turns the ADP formed in a reaction into a luminescent signal.
As for `CCc1c(N2CCN(C(=O)c3ncnc(C)c3O)CC2)c(=O)c2nn(-c3cc(C)n(C)n3)nc2n1CC(=O)Nc1ccc(C(F)(F)F)cc1Cl` [Compound I-16, N-(2-chloro-4-(trifluoromethyl)phenyl)-2-(2-(1,5-dimethyl-1H-pyrazol-3-yl)-5-ethyl-6-(4-(5-hydroxy-6-methylpyrimidine-4-carbonyl)piperazin-1-yl)-7-oxo-2,7-dihydro-4H-[1,2,3]triazolo[4,5-b]pyridin-4-yl)acetamide], the IC50 was in the range of 5 to 50 nM.
On the same count and under the same terms, as for `CCc1c(N2CCN(C(=O)c3ncnc(C)c3O)[C@H]3CC[C@@H]32)c(=O)c2nn(-c3ccnc(OC)c3)nc2n1CC(=O)Nc1ccc(C(F)(F)F)cc1Cl` [Compound I-6, N-(2-chloro-4-(trifluoromethyl)phenyl)-2-(5-ethyl-6-((1S,6S)-5-(5-hydroxy-6-methylpyrimidine-4-carbonyl)-2,5-diazabicyclo[4.2.0]octan-2-yl)-2-(2-methoxypyridin-4-yl)-7-oxo-2,7-dihydro-4H-[1,2,3]triazolo[4,5-b]pyridin-4-yl)acetamide], the figure is at most 5 nM.
On to `CCc1c(N2CCN(C(=O)c3ncnc(C)c3O)CC2)c(=O)c2nn(C3=CCOCC3)nc2n1CC(=O)Nc1ccc(C(F)(F)F)cc1Cl` [Compound I-13, N-(2-chloro-4-(trifluoromethyl)phenyl)-2-(2-(3,6-dihydro-2H-pyran-4-yl)-5-ethyl-6-(4-(5-hydroxy-6-methylpyrimidine-4-carbonyl)piperazin-1-yl)-7-oxo-2,7-dihydro-4H-[1,2,3]triazolo[4,5-b]pyridin-4-yl)acetamide], for which the IC50 was in the range of 5 to 50 nM.
